In the experiment the target is T1, Kv1.3 potassium channel (Homo sapiens, UniProt P22001).
T1 construct: expressed in transfected cells
T1 sequence (P22001 whole entry): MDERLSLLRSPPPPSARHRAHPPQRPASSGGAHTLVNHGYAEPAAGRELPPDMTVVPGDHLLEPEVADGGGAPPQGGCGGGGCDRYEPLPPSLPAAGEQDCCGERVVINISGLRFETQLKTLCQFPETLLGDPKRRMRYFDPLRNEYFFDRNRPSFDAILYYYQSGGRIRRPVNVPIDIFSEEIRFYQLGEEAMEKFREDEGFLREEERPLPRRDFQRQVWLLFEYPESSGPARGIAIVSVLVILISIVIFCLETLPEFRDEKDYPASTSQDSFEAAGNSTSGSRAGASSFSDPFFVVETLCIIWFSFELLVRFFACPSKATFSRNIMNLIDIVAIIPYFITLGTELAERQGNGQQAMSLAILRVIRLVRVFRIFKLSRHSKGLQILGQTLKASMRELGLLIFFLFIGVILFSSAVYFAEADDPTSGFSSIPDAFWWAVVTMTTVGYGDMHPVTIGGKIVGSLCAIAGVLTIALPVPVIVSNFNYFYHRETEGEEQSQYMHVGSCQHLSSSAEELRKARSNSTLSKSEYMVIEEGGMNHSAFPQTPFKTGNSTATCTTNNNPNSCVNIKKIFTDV
In words: Kv1.3 potassium channel blocker activity, automated whole-cell patch clamp (Patchliner). Format: cell-based. Particulars: CHO-K1 cells stably expressing Kv1.3; whole cell current inhibition; read-out: Kv1.3_IC50. As to the method: The assay described below is used to evaluate the disclosed compound's activities as Kv1.3 potassium channel blockers.
CHO-K1 cells stably expressing Kv1.3 were grown in DMEM containing 10% heat-inactivated FBS, 1 mM Sodium Pyruvate, 2 mM L-Glutamine and G418 (500 μg/ml).
All compounds were dissolved in DMSO at 30 mM.
The currents were evoked by applying 100 ms depolarizing pulses from −90 mV (holding potential) to +40 mV were applied with 0.1 Hz frequency. […] 10 second breaks were used between pulse trains (see Table A below).
Data were sampled at 10 kHz without filtering. Passive leak currents were subtracted online using a P/4 procedure (HEKA Elektronik Dr. Schulze GmbH). […] Total compound incubation time before the next pulse train was not longer than 10 seconds. Peak current inhibition was observed during compound equilibration.
In the case of `N[C@@H](c1cc(Cl)c(C2=CCCC2)cc1O)C1CCN(C(=O)[C@H](O)CO)CC1` [Compound 318, (2R)-1-[4-[(R)-amino[5-chloro-4-(cyclopent-1-en-1-yl)-2-hydroxyphenyl]methyl]piperidin-1-yl]-2,3-dihydroxypropan-1-one Trifluoroacetic Acid], the IC50 is under 30 µM.
For `O=S(=O)([C@@H]1CCNC1)N1CCC([C@H](O)c2cc(Cl)c(Cl)cc2O)CC1` (single isomer, unassigned; isomer 2) [Compound 125, 4,5-dichloro-2-(hydroxy(1-(pyrrolidin-3-ylsulfonyl)piperidin-4-yl)methyl)phenol Isomer 2], the IC50 was under 10 µM.
As for `C[C@](O)(c1cc(Cl)c(Cl)cc1O)C1CCNCC1` (single isomer, unassigned; isomer 2) [Compound 26, 4,5-dichloro-2-(1-hydroxy-1-(piperidin-4-yl)ethyl)phenol Isomer 2], the IC50 is under 10 µM.
For the molecule `CN1CCC([C@H](O)c2cc(Cl)c(Cl)cc2O)CC1` (single isomer, unassigned) [Compound 319], the IC50 is under 10 µM.
Next, `N[C@@H](c1cc(Cl)c(Cl)cc1O)C1CCN(C(=O)[C@@H]2CNC(=O)CO2)CC1` [Compound 229, (6S)-6-[4-[(R)-amino(4,5-dichloro-2-hydroxyphenyl)methyl]piperidine-1-carbonyl]morpholin-3-one Trifluoroacetic Acid]: under 10 µM; `N[C@@H](c1cc(Cl)c(Cl)cc1O)C1CCN(C(=O)c2c[nH]c(=O)[nH]2)CC1` [Compound 254, 4-[4-[(R)-amino(4,5-dichloro-2-hydroxyphenyl)methyl]piperidine-1-carbonyl]-1,3-dihydroimidazol-2-one trifluoro-acetic acid]: under 0.5 µM.
Regarding `N[C@@H](c1c(O)cc(Cl)c(Cl)c1F)C1CCN(C(=O)c2c[nH]c(=O)c(Cl)c2)CC1` [Compound 266, 5-[4-[(R)-amino(3,4-dichloro-2-fluoro-6-hydroxyphenyl)methyl]piperidine-1-carbonyl]-3-chloro-1H-pyridin-2-one Trifluoroacetic Acid], the IC50 is under 0.5 µM.
Next, `O=S(=O)([C@@H]1CCNC1)N1CCC([C@@H](O)c2cc(Cl)c(Cl)cc2O)CC1` (single isomer, unassigned; isomer 4) [Compound 127, 4,5-dichloro-2-(hydroxy(1-(pyrrolidin-3-ylsulfonyl)piperidin-4-yl)methyl)phenol Isomer 4]: under 0.5 µM.
The value for `CC(=O)N1CCC(C(Nc2ccccn2)c2cc(Cl)c(Cl)cc2O)CC1` (stereo not shown) [Compound 27, 1-[4-[(4,5-dichloro-2-hydroxyphenyl)[(pyridin-2-yl)amino]methyl]piperidin-1-yl]ethan-1-one Trifluoroacetic Acid] was under 30 µM; that for `N[C@@H](c1cc(Cl)c(Cl)cc1O)[C@@H]1CCCN(C(=O)[C@H](O)CO)CC1` (single isomer, unassigned; isomer 1) [Compound 333] was under 10 µM; that for `N[C@@H](c1cc(Cl)c(Cl)cc1O)C1CC2CC1CN2C(=O)[C@H](O)CO` (stereo partly drawn) [Compound 315, (2R)-1-(5-((R)-amino(4,5-dichloro-2-hydroxyphenyl)methyl)-2-azabicyclo[2.2.1]heptan-2-yl)-2,3-dihydroxypropan-1-one Trifluoroacetic Acid] was under 10 µM.
The value for `CC(C)C[C@H](N)C(=O)N1CCC([C@@H](N)c2cc(Cl)c(Cl)cc2O)CC1` [Compound 93, (S)-2-amino-1-(4-((R)-amino (4,5-dichloro-2-hydroxyphenyl)methyl)piperidin-1-yl)-4-methylpentan-1-one] was under 10 µM; that for `O=C([C@H]1CCNC1)N1CCC[C@H]([C@@H](O)c2c(O)ccc(Cl)c2Cl)CC1` (single isomer, unassigned; isomer 4) [Compound 130] was under 10 µM.
Consider `Cc1cc(O)c([C@H](N)C2CCN(C(=O)c3ccc4c(c3)OCC(=O)N4)CC2)cc1Cl` [Compound 265, 7-[4-[(R)-amino(5-chloro-2-hydroxy-4-methylphenyl)methyl]piperidine-1-carbonyl]-2,4-dihydro-1,4-benzoxazin-3-one trifluoroacetic acid], for which the IC50 was under 0.5 µM.
In the case of `CN1CC(C(=O)N2CCC([C@@H](N)c3cc(Cl)c(Cl)cc3O)CC2)OCC1=O` (stereo partly drawn) [Compound 268, 6-[4-[(R)-amino(4,5-dichloro-2-hydroxyphenyl)methyl]piperidine-1-carbonyl]-4-methylmorpholin-3-one trifluoroacetic acid], the IC50 was under 0.5 µM.
Turning to `CC(=O)N1CCC(C(c2cc(Cl)c(Cl)cc2O)N2CCCC2)CC1` (stereo not shown) [Compound 23, 1-(4-((4,5-dichloro-2-hydroxyphenyl)(pyrrolidin-1-yl)methyl)piperidin-1-yl)ethanone Trifluoroacetic Acid], the IC50 was under 10 µM.
`O=C([C@@H]1CCNC1)N1CCC([C@H](O)c2c(O)ccc(Cl)c2Cl)CC1` (single isomer, unassigned) [Compound 321, Trifluoroacetic Acid]: the IC50 is under 10 µM.
For `NC(=O)CCN1CCC(C(N)c2cc(Cl)c(Cl)cc2O)CC1` (stereo not shown) [Compound 78], the IC50 is under 10 µM.
For `Cc1cc(O)c([C@H](N)C2CCN(C(=O)c3ccc4oc(=O)[nH]c4c3)CC2)cc1Cl` [Compound 258, 5-[4-[(R)-amino(5-chloro-2-hydroxy-4-methylphenyl)methyl]piperidine-1-carbonyl]-3H-1,3-benzoxazol-2-one formic acid], the IC50 was under 0.5 µM.
With `N#Cc1cc(O)c([C@H](N)C2CCN(C(=O)[C@H](O)CO)CC2)cc1Cl` [Compound 286, 4-[(R)-amino([1-[(2R)-2,3-dihydroxypropanoyl]piperidin-4-yl])methyl]-2-chloro-5-hydroxybenzonitrile Trifluoroacetic Acid], the concentration for half-maximal inhibition (IC50) is under 10 µM.
For `NC(c1cc(Cl)c(Cl)cc1O)C1CCN(Cc2ccccc2)CC1` (stereo not shown) [Compound 41, 2-(amino(1-benzylpiperidin-4-yl)methyl)-4,5-dichlorophenol Trifluoroacetic Acid], the IC50 was under 10 µM.
In the case of `CCNC(c1cc(Cl)c(Cl)cc1O)C1CCN(C(=O)[C@H](O)CO)CC1` (stereo partly drawn) [Compound 202, (2R)-1-[4-[(4,5-dichloro-2-hydroxyphenyl)(ethylamino)methyl]piperidin-1-yl]-2,3-dihydroxypropan-1-one Trifluoroacetic Acid], the IC50 is under 30 µM.
With `Cc1ccc(S(=O)(=O)N2CCC(C(N)c3cc(Cl)c(Cl)cc3O)CC2)cc1` (stereo not shown) [Compound 35, 2-(amino(1-tosylpiperidin-4-yl)methyl)-4,5-dichlorophenol], the IC50 was under 10 µM.
With `N[C@H](c1c(O)cc(Cl)c(Cl)c1F)C1CCN(C(=O)[C@H](O)CO)CC1` [Compound 287, (R)-1-(4-((S)-amino(3,4-dichloro-2-fluoro-6-hydroxyphenyl)methyl)piperidin-1-yl)-2,3-dihydroxypropan-1-one], the IC50 was under 10 µM.
In the case of `CC[C@H](N)C(=O)N1CCC([C@@H](N)c2cc(Cl)c(Cl)cc2O)CC1` [Compound 91, (S)-2-amino-1-(4-((R)-amino(4,5-dichloro-2-hydroxyphenyl)methyl)piperidin-1-yl)butan-1-one trifluoroacetic acid], the IC50 is under 0.5 µM.
Turning to `Cc1cc(O)c([C@H](N)C2CCN(C(=O)c3c[nH]c(=O)c4ccccc34)CC2)cc1Cl` [Compound 325, 4-[4-[(R)-amino (5-chloro-2-hydroxy-4-methylphenyl)methyl]piperidine-1-carbonyl]-2H-isoquinolin-1-one trifluoroacetic acid], the IC50 is under 0.5 µM.
Turning to `Cc1cc(O)c([C@H](N)C2CCN(C(=O)c3ccc4[nH]c(=O)oc4c3)CC2)cc1Cl` [Compound 271, 6-[4-[(R)-amino(5-chloro-2-hydroxy-4-methylphenyl)methyl]piperidine-1-carbonyl]-3H-1,3-benzoxazol-2-one], the concentration for half-maximal inhibition (IC50) is under 10 µM.
For the molecule `O=S(=O)([C@H]1CCNC1)N1CCC([C@@H](O)c2cc(Cl)c(Cl)cc2O)CC1` (single isomer, unassigned; isomer 1) [Compound 124, 4,5-dichloro-2-(hydroxy(1-(pyrrolidin-3-ylsulfonyl)piperidin-4-yl)methyl)phenol Isomer 1], the IC50 was under 0.5 µM.
On to `N[C@@H](c1cc(Cl)c(Cl)cc1O)[C@H]1CCN(C(=O)[C@H](O)CO)C1` (single isomer, unassigned; isomer 2) [Compound 312], for which the IC50 is under 10 µM.
In the case of `CC(=O)N[C@@H](c1cc(Cl)c(Cl)cc1O)C1CCNCC1` (single isomer, unassigned) [Compound 17], the IC50 is under 30 µM.
Consider `N[C@@H](c1cc(Cl)c(Cl)cc1O)C1CCN(C(=O)c2c[nH]c(=O)c(Cl)c2)CC1` [Compound 255, 5-[4-[(R)-amino(4,5-dichloro-2-hydroxyphenyl)methyl]piperidine-1-carbonyl]-3-chloro-1H-pyridin-2-one], for which the 50% inhibitory concentration (IC50) was under 0.5 µM.
As for `N[C@H](c1cc(Cl)c(Cl)cc1O)C1CCN(C(=O)[C@H]2CCNC2)CC1` [Compound 79, (4-((S)-amino(4,5-dichloro-2-hydroxyphenyl)methyl)piperidin-1-yl)((S)-pyrrolidin-3-yl)methanone], the IC50 was under 10 µM.
The value for `Cc1cc(O)c([C@H](N)C2CCN(C(=O)c3ccncc3)CC2)cc1Cl` [Compound 234, 2-[(R)-amino[1-(pyridine-4-carbonyl)piperidin-4-yl]methyl]-4-chloro-5-methylphenol trifluoroacetic acid] was under 0.5 µM.
As to `C[C@@H](N)C(=O)N1CCC([C@H](N)c2cc(Cl)c(Cl)cc2O)CC1` (single isomer, unassigned) [Compound 87], the IC50 is under 10 µM.

The values above are taken from patent US20230023559A1, “ARYLMETHYLENE HETEROCYCLIC COMPOUNDS AS KV1.3 POTASSIUM SHAKER CHANNEL BLOCKERS” (D. E. Shaw Research, LLC, priority 2019, published 2023).
